Test results published in publication PMC7340446, “Optimization of PTH/PTHrP Hybrid Peptides to Derive a Long‐Acting PTH Analog (LA‐PTH)” (JBMR Plus, 2020).
Where no end group is shown, it is not given here.

Experiments:
[1] = Pharmacokinetics in normal rats, i.v., plasma peptide by ELISA; type: in vivo, rat; conditions: i.v. 10 nmol/kg, plasma with protease inhibitors, n = 4 (M‐PTH/PTHrP) or 3 (PTH(1–34))
Description: For pharmacokinetic studies, plasma samples were prepared in the presence of protease inhibitors (aprotinin, leupeptin, EDTA). Plasma levels of PTH(1–34) were assessed by ELISA assay (Human PTH(1–34) Specific ELISA Kit; Immutopics Inc, San Clemente, CA, USA), and plasma levels of M‐PTH/PTHrP were assessed by ELISA assay (PTH‐RP 1–34 Human Enzyme Immunoassay Kit; Peninsula Laboratories International, San Carlos CA, USA) using M‐PTH/PTHrP peptides as standard solutions.
Figure 3 Pharmacodynamic and pharmacokinetic profiles of M‐PTH/PTHrP and PTH(1–34) in rats. (A) Effects of M‐PTH/PTHrP and PTH(1–34) on blood ionized Ca in TPTX rats by i.v. injection. M‐PTH/PTHrP and PTH(1–34) were injected intravenously in TPTX rats at the indicated doses, and blood samples were collected from the tail vein measured for ionized Ca; data are means ± SE; n = 5 or 3 (PTH(1–34)). *p < 0.05, **p < 0.01, ***p < 0.005 M‐PTH/PTHrP or PTH(1–34) versus TPTX‐vehicle. […] M‐PTH/PTHrP and PTH(1–34) each at a dose of 10 nmol/kg were i.v. administered, and blood samples were collected from the jugular vein in the presence of proteinase inhibitors (Aprotinin, Leupeptin, and EDTA) and the plasma samples were assessed for peptide concentration using a hPTHrP(1–34)‐targeted EIA for M‐PTH/PTHrP and an hPTH(1–34)‐targeted ELISA for PTH(1–34). […]

[2] = test system: thyroparathyroidectomized (TPTX) rats; assay: Repeated daily administration in TPTX rats (11‐day treatment, 12‐day study); type: in vivo, rat; conditions: daily s.c. 8.0 nmol/kg
Description: TPTX rats were injected i.v. or s.c. with vehicle or vehicle containing a PTH peptide, or orally treated once daily with vehicle (medium‐chain triglyceride; Chugai Pharma Manufacturing, Tokyo, Japan) or vehicle containing alfacalcidol (Chugai Pharma Manufacturing) for 11 days. Blood samples were obtained from the tail or jugular vein immediately before and at times after injection. Urine samples at 0 to 8 hours or 8 to 24 hours, were collected in metabolic cages. sCa and uCa, serum inorganic phosphorus (sPi) and urinary phosphorus (uPi), and creatinine (uCre) were measured with an automatic analyzer (7180; Hitachi, Ltd, Chiyoda, Tokyo, Japan). Urinary deoxypyridinoline (uDpD) was measured using a Metra DPD EIA kit (DS Pharma Biomedical, Osaka, Japan), and the data were normalized to the uCre concentrations. Serum FGF23 was measured using FGF23 ELISA assay (Immunodiagnostik AG, Bensheim, Germany). Serum 1,25‐dihydroxyvitamin D [1,25(OH)2D3] levels were determined by a ELISA immunoassay (Immunodiagnostic System Ltd, Bolden, UK).
Figure 4 Effects of 11‐day treatment (12‐day study) with M‐PTH/PTHrP or alfacalcidol on serum calcium (sCa) in thyroparathyroidectomized (TPTX) rats. TPTX rats were treated for 11 days with daily s.c. injection of either vehicle or M‐PTH/PTHrP, or with daily oral alfacalcidol at the indicated doses, and sham‐surgery control rats were s.c. injected daily with vehicle. The levels of Ca in serum and urine were assessed. Blood samples were collected from the jugular vein at 8 hours (A) and at 24 hours (B) after the last treatment administration, and assessed for total sCa. Total urine was collected in metabolic cages over the time intervals of 0 to 8 hours (C), and 8 to 24 hours (D) and assessed for total urinary Ca. Data are means ± SEM; n = 6 or 5 (2.0 and 4.0 nmol/kg of M‐PTH/PTHrP); *p < 0.05 M‐PTH/PTHrP versus TPTX‐vehicle; #p < 0.05 TPTX vehicle versus sham.
Supplementary file JBM4-4-e10367-s001.pdf: Figure S1 PTH ligand‐induced cAMP‐signaling responses in GP‐2.3 cells Time course of the cAMP‐dependent luminescence response measured at 2‐minute intervals in the presence of each ligand at 10 nM (Ligand on‐phase) and B) Time course of the cAMP‐dependent luminescence response measured at 2‐minute intervals after washout of unbound ligand (Ligand wash‐out phase). GP‐2.3 cells preloaded with luciferin were treated with a concentration of PTH ligand at a concentration of 10 nM for 30 min, and cAMP‐dependent luminescence was measured at two‐minute intervals (ligand‐on phase). The cells were then removed from the plate reader, rinsed twice with media to remove unbound ligand, and then fresh media containing luciferin but lacking ligand was added and luminescence was assessed for additional 90 min (Ligand wash‐out phase). Data are means (± SEM) of four experiments, each performed in triplicate. Figure S2. In vivo calcemic actions of M‐PTH/PTHrP hybrid analogs in normal rats. The indicated M‐PTH/PTHrP hybrid analogs (sequences are shown in Figure 1) along with PTH(1–34) and PTHrP(1–36) controls, were administered at the indicated doses by i.v. injection, and at the indicated time points blood was collected from the tail vein and measured for ionized calcium (Ca^2+). Panels A‐C represent three separate experiments. Data are means ± SEM; n = 6 or 4 (80 nmol/kg of M‐PTH(1‐11)/PTHrP(12–36), M‐PTH(1‐14)/PTHrP(12–36), M‐PTH(1‐17)/PTHrP(18–36) and 1.25 nmol/kg of M‐PTH(1–30)/PTHrP(31–36)). *p < 0.05 versus Vehicle. Figure S3. Effects of 11 days treatment (12 days study) of M‐PTH/PTHrP on serum 1,25(OH) 2 Vitamin‐D3, urinary deoxypyridinoline (Dpd) and serum FGF23 in TPTX rats. Serum and urine samples obtained from the TPTX and sham control rats of the two‐week daily‐administration experiment shown in Figure 4 were analyzed by ELISA for the indicated markers. A) serum 1,25(OH)2Vitamin‐D3. B) urinary deoxypyridinoline (DpD)/Cre. C) serum FGF23. […]

Time by which plasma concentration declined to the lowest detection level [1]: ≤ 60 min
sCa levels ([2]; 8 hours after administration): frank hypercalcemia
uCa at 0 to 8 hours and uDpD at 0 to 24 hours ([2]; after the last administration): increased significantly
Sequence: AVAEIQLMHQRAKWIQDLRRRFFLHHLIAEIHTAEI [M‐PTH(1‐14)/PTHrP(15‐36), [Ala^1,3,12,Gln^10,Arg^11,Trp^14]‐PTH(1‐14)/PTHrP(15–36)]
